Data on one molecule can be found in US7649002B2, “(3,5-dimethylpiperidin-1yl)(4-phenylpyrrolidin-3-yl)methanone derivatives as MCR4 agonists” (Pfizer Inc, priority 2004, dated 2010).

The target of one assay is T1, human MCR4 receptor (Homo sapiens, UniProt P32245).
T1 construct: expressed in transfected cells
The experiment in a line: MCR4 standard functional assay (Protocol C): cAMP AlphaScreen in HEK cells. It is filed as cell-based. The note with it: Table 5. How it is done:
(§1) Stimulation of adenylate cyclase following receptor activation is a widely used measure of functional activity for a number of receptor systems. The functional assay to measure cyclic AMP (cAMP) utilises human embryonic kidney (HEK) cells that stably express the human melanocortin MCR1, MCR3 or MCR4 receptor. Activation of MCR1, MCR3 or MCR4 receptors stimulates adenylate cyclase, generating cAMP, which is measured using AlphaScreen™ (PerkinElmer assay kits.
(§2) The AlphaScreen™ cAMP assay kit consists of ‘donor beads’, ‘acceptor beads’, and biotinylated cAMP which links the different beads together. Excitation of this linked complex at […] in the Fusion™-α microplate analyser results in light emission between […].
(§3) (i) MCR1. MCR3 and MCR4 Standard Functional Assay Methodology [Assay Protocol A, B AND C Respectively]
(§4) Determination of activity against the human MCR1, MCR3 and MCR4 receptor subtypes was carried out for compounds according to the present invention using three immortalised human embryonic kidney (HEK) cell lines that had been biologically engineered to express the human melanocortin MCR1, MCR3 or MCR4 receptor subtypes. These cell lines were engineered using protocols akin to those outlined by Gouarderes et al (Gouarderes, C., (2002) Neuroscience, 115(2); 349-361).
(§5) Such-compound-induced activation of these MCR1, MCR3 or MCR4 receptors lead to the stimulation of the cellular enzyme adenylate cyclase, which in turn lead to the cellular generation, and intra-cellular accumulation, of cyclic adenosine monophosphate (cAMP). […] Intracellular levels of cAMP were quantified using the commercially available AlphaScreen™ assay kits from PerkinElmer. A detailed assay protocol and an explanation of the concept underlying this kit is available through the PerkinElmer website (www.perkinelmer.com). The protocol listed below provides a summary this information.
(§6) The quantity of intracellular cAMP produced by compound-induced activation of the MCR1, MCR3 and MCR4 receptors in these three cell lines was measured using a Fusion™-α microplate analyser set to stimulate at a wavelength of 680 nm and to measure the energy emitted at wave lengths between […]. Compound-induced increases in MCR1, MCR3 or MCR4 receptor activation were subsequently quantified as a decrease in the quantity of light emitted at wavelengths between […]. Data analysis was subsequently performed using a curve-fitting program and the apparent potency of the test compound (expressed as an EC50 and defined as the effective compound concentration that elicited 50% of the maximum compound-induced response) extrapolated from the fitted curve.
Stimulation buffer (as per AlphaScreen™ protocol): HBSS supplemented with 0.5 mM IBMX, 5 mM HEPES, 0.1% (w/v) BSA and 10 mM MgCl2. […]

A further assay addresses T2, human MCR3 receptor (Homo sapiens, UniProt P41968).
T2 construct: expressed in transfected cells
Nature of the assay: MCR3 standard functional assay (Protocol B): cAMP AlphaScreen in HEK cells. It is filed as cell-based. The note with it: Table 5. How it is done: as §1, §2, §3, §4, §5, §6
Stimulation buffer (as per AlphaScreen™ protocol): HBSS supplemented with 0.5 mM IBMX, 5 mM HEPES, 0.1% (w/v) BSA and 10 mM MgCl2.
Lysis buffer (as per AlphaScreen™ protocol): 5 mM HEPES solution supplemented with 0.1% (w/v) BSA and 0.3% (v/v) Tween-20.
Detection mix (as per AlphaScreen™ protocol): Lysis buffer supplemented with the biotinylated cAMP (10 nM) and Donor beads (10 μg/ml) as supplied in the AlphaScreenT cAMP assay kit.
For the MCR1, MCR3 and MCR4 standard functional assay methodologies compounds were initially dissolved in DMSO to give a compound concentration of 4 mM and then further diluted for the assay in stimulation buffer to give actual concentrations 2-fold greater than that desired as the final assay concentration.
The three HEK cell lines, as detailed hereinbefore, expressing the human MCR1, MCR3 or MCR4 receptor subtypes were grown in T225 vent cap flasks containing 50 ml of growth medium (DMEM supplemented with 10% (v/v) FCS, 2 mM L-Glutamine, 25 mM HEPES and 1.0 mg/ml Geneticin) and maintained in a cell incubator at a temperature of 37° C. and in an environment containing 5% CO2. Cells were harvested when they reached 80-90% confluency by first removing the existing growth medium and then washing with PBS that had been pre-warmed to a temperature of 37° C. […]

Structures are written as SMILES.

T2 sequence (P41968 whole entry): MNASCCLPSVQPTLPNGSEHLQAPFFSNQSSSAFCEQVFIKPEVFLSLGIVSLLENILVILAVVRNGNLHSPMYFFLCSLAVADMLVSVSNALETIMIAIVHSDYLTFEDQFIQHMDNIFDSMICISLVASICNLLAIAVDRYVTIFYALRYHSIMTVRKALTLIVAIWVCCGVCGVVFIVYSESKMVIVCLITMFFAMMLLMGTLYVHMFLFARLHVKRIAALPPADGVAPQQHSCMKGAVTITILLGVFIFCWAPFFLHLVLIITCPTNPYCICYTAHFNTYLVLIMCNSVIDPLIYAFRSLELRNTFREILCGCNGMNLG
T1 sequence (P32245 whole entry): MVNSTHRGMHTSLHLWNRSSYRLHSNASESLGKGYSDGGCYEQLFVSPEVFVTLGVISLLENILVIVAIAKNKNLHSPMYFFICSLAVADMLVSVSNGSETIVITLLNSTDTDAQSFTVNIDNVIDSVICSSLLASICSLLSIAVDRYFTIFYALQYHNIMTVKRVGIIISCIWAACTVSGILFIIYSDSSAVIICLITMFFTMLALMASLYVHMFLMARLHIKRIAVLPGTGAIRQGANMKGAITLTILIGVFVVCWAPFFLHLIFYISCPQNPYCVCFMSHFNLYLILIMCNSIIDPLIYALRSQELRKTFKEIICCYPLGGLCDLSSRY

`C[C@@H]1CN(C(=O)[C@@H]2CN(C(C)(C)C)C[C@H]2c2ccc(F)cc2F)C[C@H](C)[C@@]1(O)c1ccccc1` [Example 1, (3R,4R,5S)-1-{[(3S,4R)-1-tert-Butyl-4-(24-difluorophenyl)pyrrolidin-3-yl]carbonyl}-3,5-dimethyl-4-phenylpiperidin-4-ol]: the EC50 worked out at 25 nM on human MCR4 receptor and 1390 nM on human MCR3 receptor (Protocol B). For the same molecule, on human MCR3 receptor (MCR4 by Protocol C), the “Selectivity MCR3/MCR4” value is reported as 56.
